IC50 and EC50 data for two compounds are collected here from article PMC3679734 (BMC Research Notes, 2013).

In experiment [1] the target is T1, human DAT (Homo sapiens, UniProt Q01959).
T1 construct: expressed in transfected cells; host or cells: HEK-293 cells (Invitrogen, Zug, Switzerland)
The experiment can be described thus: Inhibition of DA uptake. The experiment is classed as cell-based. How it is done: The potencies of the drugs to inhibit the DAT were evaluated as previously described in HEK-293 cells (Invitrogen, Zug, Switzerland) stably transfected with the human DAT [8].

The target in experiment [2] is T1, human DAT. The experiment in a line: Inhibition of methamphetamine-induced DA release. Type of experiment: cell-based. Particulars: HEK-293 cells expressing human DAT preloaded with 3H-DA; release induced with 10 μM methamphetamine, 15 min; means of 3–4 independent experiments and 95% CI. How it is done:
We performed DA transporter mediated release experiments as previously published with slight modification. In brief, HEK-293 cells expressing the human DAT as stated above were cultured in 48 well-plates. Cells were filled with ^3H-DA, washed, and incubated with 250 μL buffer containing the drug alone or in combinations. […] DA release was stopped after 15 min by removing the release buffer from the cells. To quantify the DA release we determined the radioactivity in the cells after another wash step. The residual radioactivity in the cells after methamphetamine alone defined 100% DA release.

Experiment [3] deals with T1, human DAT. Set-up: method as in PMID 22897747. Particulars: read-out: DA release potency (EC50); HEK-293 cells expressing human DAT; 95% CI 0.9 μM-[…]; as shown previously ref 25; cited from earlier work.

T1 sequence (Q01959 whole entry): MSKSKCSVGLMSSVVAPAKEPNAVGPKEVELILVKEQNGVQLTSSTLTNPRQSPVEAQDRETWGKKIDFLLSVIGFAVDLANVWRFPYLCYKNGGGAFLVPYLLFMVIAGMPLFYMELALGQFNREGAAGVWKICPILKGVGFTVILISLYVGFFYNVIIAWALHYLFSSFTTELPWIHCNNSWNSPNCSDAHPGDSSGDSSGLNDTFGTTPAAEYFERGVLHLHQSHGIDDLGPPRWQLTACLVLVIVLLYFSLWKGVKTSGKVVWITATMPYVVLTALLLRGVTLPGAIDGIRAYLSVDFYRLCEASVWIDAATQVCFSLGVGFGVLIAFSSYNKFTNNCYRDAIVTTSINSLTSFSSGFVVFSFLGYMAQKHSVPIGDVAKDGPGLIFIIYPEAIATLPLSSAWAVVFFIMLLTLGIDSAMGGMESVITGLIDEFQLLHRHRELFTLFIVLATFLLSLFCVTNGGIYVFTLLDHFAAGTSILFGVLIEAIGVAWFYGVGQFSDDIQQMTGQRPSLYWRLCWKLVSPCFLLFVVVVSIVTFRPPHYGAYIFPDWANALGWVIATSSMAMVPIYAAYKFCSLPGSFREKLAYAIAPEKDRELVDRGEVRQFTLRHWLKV

Broadly, the IC50 is the concentration that gives 50% inhibition. Regarding `CCCC(C(=O)c1ccc2c(c1)OCO2)N1CCCC1` (stereo not shown) [MDPV, 3,4-methylenedioxypyrovalerone], the half-inhibitory concentration (IC50) on human DAT [1] (HEK-293 cells stably transfected with the human DAT, means of 3–4 independent experiments and 95% CI, read-out: DA uptake IC50 (95% CI)) stood at 31 nM; on human DAT [2] it was 280 nM.

The EC50 is the midpoint of the concentration-response curve. On human DAT [1], `CN[C@@H](C)Cc1ccccc1` [Methamphetamine, d-methamphetamine] showed an IC50 of 1050 nM. Further, the concentration giving a half-maximal response (EC50) on human DAT [3] is 1560 nM.
